Test results published in publication PMC9137581, “Identification of a Novel Class of Anti-Melanogenic Compounds, (Z)-5-(Substituted benzylidene)-3-phenyl-2-thioxothiazolidin-4-one Derivatives, and Their Reactive Oxygen Species Scavenging Activities” (Antioxidants, 2022).

Legend:
[1] = test system: intracellular ROS in B16F10 cells; assay: Intracellular ROS scavenging activity assay (DCFH-DA, SIN-1); assay type: cell-based, murine; conditions: ≤ 20 µM, 10 µM SIN-1, B16F10 cells
Experimental: ROS scavenging activity was determined as has previously been described by Ali et al. and Lebel and Bondy. Briefly, DCFH-DA (2′,7′-dichlorodihydrofluorescein-diacetate) (2.5 mM; Molecular Probes, Eugene, OR, USA) mixed with esterase (1.5 units/mL) in a phosphate buffer (50 mM; pH 7.4) was incubated for 30 min at 37 °C and then placed on ice in the dark until it was required. In order to determine their intracellular ROS scavenging activities, B16F10 cells (1 × 10^4/well) were seeded in black 96-well plates and incubated for 24 h. The cells were then co-treated with the analogs and SIN-1 (3-morpholinosydnonimine) (10 µM), as previously described, for 2 h. DCFH-DA (20 µM) was added for 30 min in the dark and the fluorescence intensities of the oxidized DCFH were measured using a microplate reader (Tecan, Männedorf, Switzerland) at excitation and emission wavelengths of 485 and 530 nm, respectively. Trolox was used as the positive control.
We investigated the effects of the analogs on intracellular ROS (reactive oxygen species) because, reportedly, ROS might regulate melanogenesis in melanoma cells. The principle of the intracellular ROS assay that was used is that DCFH-DA (2′,7′-dichlorodihydrofluorescein diacetate) spreads across the cell membrane and is enzymatically hydrolyzed by esterases to DCFH (2′,7′-dichlorodihydrofluorescein), which reacts with ROS in order to generate DCF (2′,7′-dichlorofluorescein), which is fluorescent. Thus, the intracellular ROS scavenging activities of (Z)-BPTT analogs 1–3 and 6 were investigated in vitro using DCFH-DA. SIN-1 (3-morpholinosydnonimine) and trolox were used as a RNS/ROS generator [54] and a positive control, respectively.

[2] = ABTS free radical scavenging activity assay; conditions: 100 µM, 2 min in the dark
Experimental: ABTS free radical scavenging activity was used to evaluate the antioxidant activities of analogs 1–13, as previously described. […] This ABTS free radical solution was then diluted with absolute methanol to an absorbance of 0.70 ± 0.02 at 734 nm. Aliquots (10 µL) of the test samples (10% DMSO + 90% EtOH) were added at a final concentration of 100 µM to 90 µL of the diluted ABTS free radical solution and incubated for 2 min in the dark at room temperature. Absorbances were then measured at 734 nm using a VersaMax™ microplate reader (Molecular Devices, Sunnyvale, CA, USA). The ABTS free radical scavenging activities of the test analogs were calculated using the following formula:Scavenging activity (%) = (Ac − As) × 100/Ac where Ac is the optical density of the non-treated control and As is the optical density of the tested material.
The effects of analogs 1–13 on ABTS (2,2′-azino-bis(3-ethylbenzothiazoline-6-sulfonic acid)) free radical scavenging activity were investigated using trolox as a positive reference control. The concentrations of the analogs and trolox in the test samples were 100 µM. The free radical scavenging activities were assessed by measuring the optical densities at 734 nm after standing in the dark for 2 min. […] Analogs 7–10, with no hydroxyl groups on the β-phenyl ring, had weak ABTS and DPPH radical scavenging activities.

mushroom tyrosinase = molecular target: T1, mushroom tyrosinase (Agaricus bisporus, UniProt C7FF04); assay: Kinetic studies of mushroom tyrosinase inhibition (L-DOPA; Lineweaver–Burk and Dixon plots); assay type: biochemical; conditions: for mode of action (type of inhibition): Lineweaver–Burk plots; for Ki: determined using Dixon plots, L-DOPA substrate
T1 construct: purchased Sigma-Aldrich
T1 sequence (C7FF04 1-392): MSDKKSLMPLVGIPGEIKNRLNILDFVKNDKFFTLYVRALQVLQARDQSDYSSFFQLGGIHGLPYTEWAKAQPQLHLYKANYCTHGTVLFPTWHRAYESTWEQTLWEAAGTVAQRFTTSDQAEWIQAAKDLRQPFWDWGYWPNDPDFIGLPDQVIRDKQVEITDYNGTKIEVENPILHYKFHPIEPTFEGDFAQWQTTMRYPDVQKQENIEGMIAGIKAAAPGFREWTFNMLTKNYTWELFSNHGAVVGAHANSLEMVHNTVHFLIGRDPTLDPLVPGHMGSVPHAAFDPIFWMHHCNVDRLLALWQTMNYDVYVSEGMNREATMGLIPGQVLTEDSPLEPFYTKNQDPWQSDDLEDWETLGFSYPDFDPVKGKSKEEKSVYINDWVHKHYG
Experimental: The Michael constants (KM), inhibition constants (Ki), and Lineweaver–Burk and Dixon plots of the analogs were used in order to determine their modes of action. […] The initial rates of dopachrome production in the reaction mixtures were calculated by measuring the increases in absorbance at 492 nm (ΔOD492/min) using a microplate reader (VersaMax™, Molecular Devices, Sunnyvale, CA, USA). The maximal reaction velocity (Vmax) was determined using Lineweaver–Burk plots (plots of the inverse of the reaction rate (1/V) versus the inverse of the substrate concentration (1/[S])) that were obtained using six different L-DOPA concentrations. The mode of action of each analog was determined using the convergence point of the four plot lines.
. Lineweaver–Burk plots were used in order to determine the modes of action of these four analogs (Figure 4). Mushroom tyrosinase inhibition plots were obtained using six different L-DOPA (substrate) concentrations and four different concentrations of each analog. […] On the other hand, the Michaelis–Menten constants (KM) increased upon the increase of the analogs’ concentrations (Table 3). The KM values of the analogs were 1.042, 1.193, 1.433, and 2.159 mM at analog 1 concentrations of 0, 1, 2, and 4 µM; 1.077, 2.117, 2.899, and 4.865 mM at analog 2 concentrations of 0, 2.5, 5, and 10 µM; […]; and 1.030, 1.243, 1.531, and 1.885 mM at analog 6 concentrations of 0, 1, 2, and 4 µM. The mean of the Vmax values that were determined from the Lineweaver–Burk plots was 0.0171 mM/min. In order to determine the inhibition constants (Ki) for the mushroom tyrosinase–analog complexes, the Lineweaver–Burk plots were converted into their corresponding Dixon plots (Figure 5), in which 1/V (where V is the initial reaction velocity) was plotted against the inhibitor concentration [I] at different L-DOPA [S] concentrations.

[3] = DPPH radical scavenging activity assay; conditions: 1 mM, 30 min in the dark
Experimental: The effects of the (Z)-BPTT analogs 1–13 on DPPH radical scavenging activities were investigated as previously described with slight modification. Briefly, 180 μL of 0.2 mM DPPH in methanol was added to 96-well plates and then 20 μL of one of the (Z)-BPTT analogs 1–13 (10 mM in DMSO) or the positive control (10 mM L-ascorbic acid in distilled water) was added and mixed. The 96-well plates were incubated in the dark for 30 min and then the well optical densities were measured at 517 nm using a VersaMax™ microplate reader (Molecular Devices, Sunnyvale, CA, USA). All of these experiments were performed independently in triplicate. The DPPH radical scavenging activities of the analogs were calculated using the following formula:Scavenging activity (%) = (Ac − As) × 100/Ac where Ac is the optical density of the non-treated control and As is the optical density of the tested material.
The DPPH (2,2-diphenyl-1-picrylhydrazyl) radical scavenging abilities of the (Z)-BPTT analogs were investigated using L-ascorbic acid (vitamin C) as a positive control. The final concentrations of the analogs and of the positive control in the test samples and in the DPPH methanol solution were 1 and 0.18 mM, respectively. The scavenging activities of the analogs were assessed by measuring their optical densities at 517 nm after standing the samples in the dark for 30 min.

[4] = Calculated log p (ChemDraw Ultra 12.0); conditions: from calculated log p 3.16 vs. –2.45
Excerpt: In order to determine how well the (Z)-BPTT analogs are absorbed by skin, their log p (partition coefficient) values were examined using ChemDraw Ultra Ver. 12.0.

mode of action (type of inhibition) (mushroom tyrosinase)	Ki (mushroom tyrosinase)	partition coefficient relative to kojic acid [4]	Structure (SMILES)	intracellular ROS scavenging activity [1]	ABTS free radical scavenging activity (in words) [2]	DPPH radical scavenging activity [3]	ABTS free radical scavenging activity [2]
competitive	4.67 µM		O=C1/C(=C/c2ccc(O)cc2)SC(=S)N1c1ccccc1 [Analog 1, (Z)-5-(4-Hydroxybenzylidene)-3-phenyl-2-thioxothiazolidin-4-one]	did not show ROS scavenging activity	weak	14.7%	
competitive	3.18 µM	10^5 fold	O=C1/C(=C/c2ccc(O)c(O)c2)SC(=S)N1c1ccccc1 [Analog 2, (Z)-5-(3,4-Dihydroxybenzylidene)-3-phenyl-2-thioxothiazolidin-4-one]	significantly and concentration-dependently reduced SIN-1-induced increases in the intracellular ROS activity and it did so to a greater extent than trolox		92.2%	96.9%
competitive	0.708 µM	10^5 fold	O=C1/C(=C/c2ccc(O)cc2O)SC(=S)N1c1ccccc1 [Analog 3, (Z)-5-(2,4-Dihydroxybenzylidene)-3-phenyl-2-thioxothiazolidin-4-one]			57.0%	82.0%
competitive	3.23 µM		COc1ccc(/C=C2\SC(=S)N(c3ccccc3)C2=O)cc1O [Analog 6, (Z)-5-(3-Hydroxy-4-methoxybenzylidene)-3-phenyl-2-thioxothiazolidin-4-one]	did not show ROS scavenging activity		27.2%	
